According to paper PMC5290737, “Surface mediated cooperative interactions of drugs enhance mechanical forces for antibiotic action” (Scientific Reports, 2017):
Like-named read-outs stand apart in the source and are kept apart here.

What was measured:
[1] = test system: vancomycin-susceptible receptor (VSR); test: Cantilever surface stress assay, antibiotic binding to surface-bound VSR; details: for mechanical response (in words): 3 μM drug against VSR; for Kd: VSR on cantilever, fit of equation (2); for maximum stress data, Mean / Mean difference of stress, VSR versus VRR: 4 chips; for maximum stress data, Mean: one-way ANOVA table S5; for mechanical force (F = kΔz): against VSR on the cantilever, Fig. 6b (10 μM); for Mean difference of stress, VSR versus VRR: independent samples t-test, table S6; for mechanical response, free end deflection: Van 1000 μM against VSR
Description: (§1) To probe different pathways of signal-transduction central to the efficacy of recognition mechanisms and therapeutic agents, we used cantilever force-based technology. Because of its nanometre strain sensitivity, this technology can directly measure the smallest changes in mechanical strain caused by specific antibiotic binding. The principles of force transduction and measurements are well established[18][19][20] and many studies focused on cantilever sensors have been published. Unlike conventional methods such as 1H–NMR spectroscopy, enzyme-linked immunosorbent assays (ELISA)[29] or surface plasmon resonance (SPR)[30] which measure optical signatures of chemical binding, cantilever technology has the capacity to resolve forces at the level of individual hydrogen bonds, making it uniquely suited to provide important insight into force transduction mechanisms, such as cell wall strain in response to antibiotic binding. Moreover, in contrast to direct current or low-frequency signals, which cannot probe beyond electrical double layers formed by screening salts, mechanical signaling is sensitive to ligands even when they are located at distance of ~1 nm or more from the sensor surface (Fig. 1d). Measurements were performed using cantilevers functionalized with self-assembled monolayers (SAM) of VSR, VRR or reference polyethylene glycol (PEG) (see methods & materials, Supplementary Information). The specificity of mechanical signaling was achieved by performing measurements in differential mode, where the bending response of the reference PEG-coated cantilevers, (known to reduce nonspecific drug adsorption[8][14][34]) was subtracted from VSR- and VRR-coated cantilever signals (see cantilever measurement procedure, method section).
(§2) Thus far, we have discussed the impact of near-membrane layer on the association kinetics, mechanical force transduction, specificity of molecular recognition and microbial susceptibility. To gain mechanistic insight (Fig. 7a,b), we averaged measurements for each drug-target interaction over four separate chips and the results are summarized in Fig. 7c,d. […] The mechanical signaling response follows an s-shaped curve undergoing its steepest rise at N ~1/Ksurf before reaching a plateau when the binding sites are fully occupied (Fig. 7c,d). To calculate Ksurf, we used equation (2)[14], based on the conventional Hill adsorption model.
(§3) Here, Ksurf is raised to the power n to ensure that it maintains the dimension of concentration as n varies. Setting n = 1 yields the Langmuir isotherm where the reactions occur independently, while n > 1 corresponds to positive co-operative polyvalent interactions and n < 1 is a measure of negative co-operativity. In Fig. 7c,d, we find that the mechanical response at VSR levels off at 50 μM concentration for all antibiotics. In contrast, for the drug-resistant VRR a concentration of more than 1000 μM of Van, Rist or CE was required to reach indistinguishable maximum signals. The outcome of the fit using three parameters (n, Ksurf and σmax) is summarized in Supplementary Fig. 2. The calculated Ksurf for Ori binding to VSR is 40 ± 10 nM, which is 25 times stronger than for Van where Ksurf is 1.0 ± 0.3 μM. The Ksurf of Ori against VRR is 70 ± 10 nM, an astonishing 11,000 times stronger than for Van where Ksurf is 800 ± 300 μM. As a further measurement control and to confirm the accuracy of surface binding affinity, we used a commercially available SPR method (Fig. 7e,f and Supplementary SPR sensor chip functionalization procedure), where the detection of ligands is at a single planar metal surface.
(§4) The modified cantilever chip was mounted in a sealed liquid cell. The alignment of each light source onto the free end of each cantilever was confirmed by heating liquid chamber to 1 °C rise. […]

[2] = test system: vancomycin-resistant receptor (VRR); test: Cantilever surface stress assay, antibiotic binding to surface-bound VRR; details: for mechanical response (in words): 3 μM drug against VRR; for compressive surface stress: 10 μM antibiotic against VRR; for Kd: fit of equation (2); for maximum stress data, Mean: 4 chips, one-way ANOVA table S4
Description: as §1, §2, §3, §4

VSR (Ac-VSR) in solution = details: cited from earlier work
[3] = target: vancomycin-susceptible receptor (VSR); test: Surface plasmon resonance (SPR) binding to VSR; details: T100 BIAcore, fit of equation (2), read-out: Ksurf SPR
Description: The SPR sensor chip functionalization procedure is summarized (see methods & materials Supplementary Information) while the measurement protocol has been described previously. In brief we used a T100 BIAcore SPR instrument in which a series of binding analyses for Van was performed. […] The corresponding SPR response signals featured an S-shaped curve, with a steep rise, then a plateau when Van concentration was increased beyond 50 μM (Fig. 7e,f). The resulting SPR differential response signals in sodium phosphate buffer solution for 0.1 μM, 0.5 μM, 2 μM, 8 μM and 128 μM were then computed using equation (2) to calculate the surface thermodynamic equilibrium dissociation constant, Ksurf of drug-target interactions.
Surface plasmon resonance (SPR) sensor chip functionalization procedure. We applied the same cantilever functionalization procedure to the SPR sensor chip functionalization. […]
The differential stress measurements obtained from cantilever chips are typically associated with multiple parameters including number of repeated measurements, concentration and the number of cantilevers where each array has eight individual cantilevers. The statistical analysis was found to be essential for replacing a vast quantity of data with numbers such as the averages and standard deviations. […]

[4] = target: vancomycin-resistant receptor (VRR); details: ref. 3 (Van), ref. 5 (Rist), ref. 4 (CE), supplementary references, read-out: Ksurf SPR; cited from earlier work
[5] = test system: Staphylococcus aureus, enterococcus faecalis and enterococcus faecium; design: method as in PMID 19369269; details: cited from earlier work
[6] = pH 7.4 sodium phosphate buffer, read-out: Ksurf Cantilever (surface equilibrium dissociation constant)
[7] = VRR on cantilever, pH 7.4 sodium phosphate buffer, read-out: Ksurf Cantilever (surface equilibrium dissociation constant)
[8] = VSR in solution, ref. 1 (Van, Rist), ref. 7 (CE), ref. 2 (Ori), supplementary references, read-out: Ksurf Solution
[9] = solution, read-out: binding affinity against Ac-VSR

## CN[C@H](CC(C)C)C(=O)N[C@H]1C(=O)N[C@@H](CC(N)=O)C(=O)N[C@H]2C(=O)N[C@H]3C(=O)N[C@H](C(=O)N[C@H](C(=O)O)c4cc(O)cc(O)c4-c4cc3ccc4O)[C@H](O[C@H]3C[C@](C)(N)[C@@H](O)[C@H](C)O3)c3ccc(c(Cl)c3)Oc3cc2cc(c3O[C@@H]2O[C@H](CO)[C@@H](O)[C@H](O)[C@H]2O[C@H]2C[C@](C)(NCc3ccc(-c4ccc(Cl)cc4)cc3)[C@@H](O)[C@H](C)O2)Oc2ccc(cc2Cl)[C@H]1O [Ori, oritavancin]
[1]
  mechanical response (in words): significantly large mechanical response
  mechanical force (F = kΔz): ~ 3.6 nN
  Mean difference of stress, VSR versus VRR: 13.2
[1]; [6]
  Kd: 40 ± 10 nM
[1]; read-out: Ksurf (cantilever)
  Kd: 40 ± 10 nM
[1]; VSR
  maximum stress data, Mean: 33.8
[1]; ratio of cantilever Ksurf, VSR
  Ksurf of Ori against VSR, times stronger than for Van: 25 times
[2]
  mechanical response (in words): significantly large mechanical response
  compressive surface stress: ~ 23 mNm^−1
[2]; VRR (drug-resistant target) on cantilever, read-out: Ksurf (cantilever)
  Kd: 70 nM
[2]; [7]
  Kd: 70 ± 10 nM
[2]; VRR
  maximum stress data, Mean: 20.6
[2]; ratio of cantilever Ksurf, VRR
  Ksurf of Ori against VRR, times stronger than for Van: 11,000 times
[2]; σeq = 23 mNm^−1, n ~10^11 receptor molecules per cantilever
  deleterious force sensitivity s = σeq/n: ~ 20 fNm^−1
VSR (Ac-VSR) in solution; [8]
  Kd: 3800 nM
VSR (Ac-VSR) in solution; [9]
  Kd: ~1000 nM

## CN[C@H](CC(C)C)C(=O)N[C@H]1C(=O)N[C@@H](CC(N)=O)C(=O)N[C@H]2C(=O)N[C@H]3C(=O)N[C@H](C(=O)N[C@H](C(=O)O)c4cc(O)cc(O)c4-c4cc3ccc4O)[C@H](O)c3ccc(c(Cl)c3)Oc3cc2cc(c3O[C@@H]2O[C@H](CO)[C@@H](O)[C@H](O)[C@H]2O[C@H]2C[C@](C)(N)[C@H](O)[C@H](C)O2)Oc2ccc(cc2Cl)[C@H]1O [Van, vancomycin]
[1]
  mechanical response (in words): reduced overall stress transduction
  mechanical force (F = kΔz): ~ 3 nN
  Mean difference of stress, VSR versus VRR: 26.1
[1]; [6]
  Kd: 1000 ± 300 nM
[1]; VSR
  maximum stress data, Mean: 33.5
[1]; near-membrane layer thickness ~1 nm
  mechanical response, free end deflection: ~ 220 nm
[1]; near-membrane layer thickness ~50 nm
  mechanical response, free end deflection: ~ 150 nm
[2]
  mechanical response (in words): no effect
  compressive surface stress: ~ 0.4 mNm^−1
[2]; VRR
  concentration required to reach indistinguishable maximum signals: more than 1000 μM
  maximum stress data, Mean: 7.4
[2]; [7]
  Kd: 800000 nM
[3]
  Kd: 1100 ± 400 nM
[4]
  Kd: 526000 nM
VSR (Ac-VSR) in solution; [8]
  Kd: 1000 nM
VSR (Ac-VSR) in solution; [9]
  Kd: ~1000 nM
[5]
  time–kill kinetics: 6 to 24 h
